According to US10221156B2, “Pyridin-3-yl acetic acid derivatives as inhibitors of human immunodeficiency virus replication” (ViiV HEALTHCARE UK (No. 5) LIMITED, priority 2015, dated 2019):
Like-named read-outs stand apart in the source and are kept apart here.

Test system: recombinant NL-RLuc virus (HIV NL4-3 with Renilla Luciferase) in MT-2 cells
Test: Inhibition of HIV replication (NL-RLuc virus in MT-2 cells, luciferase readout)
Type: cell-based
Excerpt: Inhibition of HIV Replication:
A recombinant NL-RLuc proviral clone was constructed in which a section of the nef gene from NL4-3 was replaced with the Renilla Luciferase gene. This virus is fully infectious and can undergo multiple cycles of replication in cell culture. In addition, the luciferous reporter provides a simple and easy method for quantitating the extent of virus growth and consequently, the antiviral activity of test compounds. The plasmid pNLRLuc contains the proviral NL-Rluc DNA cloned into pUC18 at the PvuII site. The NL-RLuc virus was prepared by transfection of 293T cells with the plasmid pNLRLuc. Transfections were performed using the LipofectAMINE PLUS kit from Invitrogen (Carlsbad, Calif.) according to the manufacturer and the virus generated was titered in MT-2 cells. For susceptibility analyses, the titrated virus was used to infect MT-2 cells in the presence of compound, and after 5 days of incubation, cells were processed and quantitated for virus growth by the amount of expressed luciferase. Assay media was RPMI 1640 supplemented with 10% heat inactivated fetal bovine serum (FBS), 100 units/ml penicillin G/100 units/ml streptomycin, 10 mM HEPES buffer pH 7.55 and 2 mM L-glutamine. The results from at least 2 experiments were used to calculate the EC50 values. Luciferase was quantitated using the Dual Luciferase kit from Promega (Madison, Wis.). Susceptibility of viruses to compounds was determined by incubation in the presence of serial dilutions of the compound. The 50% effective concentration (EC50) was calculated by using the exponential form of the median effect equation where (Fa)=1/[1+(ED50/drug conc.)^m] (Johnson V A, Byington R T. Infectivity Assay. In Techniques in HIV Research. ed. Aldovini A, Walker B D. 71-76. New York: Stockton Press. 1990). Activity equal to A refers to a compound having an EC50≤100 nM, while B and C denote compounds having an EC50 between 100 nM and 1 uM (B) or >1 uM (C).

| Compound | EC50 (MT2, 120 h, read-out: Activity) [µM] | EC50 (MT2, 120 h, read-out: EC50 μM) [µM] | EC50 ({}) [µM] |
| --- | --- | --- | --- |
| Cc1nc(C)c([C@H](OC(C)(C)C)C(=O)O)c(N2CCC(C)(C)CC2)c1-c1ccc(OCCN2CCN(C)CC2)cc1 [Example 1, (S)-2-(tert-Butoxy)-2-(4-(4,4-dimethylpiperidin-1-yl)-2,6-dimethyl-5-(4-(2-(4-methylpiperazin-1-yl)ethoxy)phenyl)pyridin-3-yl)acetic Acid] | 0.1 to 1 | 0.117 | – |
| Cc1nc(C)c([C@H](OC(C)(C)C)C(=O)O)c(N2CCC(C)(C)CC2)c1-c1ccc(OCCC2CCCCC2)cc1 [Example 2, (S)-2-(tert-Butoxy)-2-(5-(4-(2-cyclohexylethoxy)phenyl)-4-(4,4-dimethylpiperidin-1-yl)-2,6-dimethylpyridin-3-yl)acetic Acid] | < 0.1 | 0.034 | – |
| Cc1nc(C)c([C@H](OC(C)(C)C)C(=O)O)c(N2CCC(C)(C)CC2)c1-c1ccc(OC2CCOc3ccccc32)cc1 (stereo partly drawn) [Example 3, (2S)-2-(tert-Butoxy)-2-(5-(4-(chroman-4-yloxy)phenyl)-4-(4,4-dimethylpiperidin-1-yl)-2,6-dimethylpyridin-3-yl)acetic Acid] | < 0.1 | – | – |
| Cc1nc(C)c([C@H](OC(C)(C)C)C(=O)O)c(N2CCC(C)(C)CC2)c1-c1ccc(OCCN2CCCCC2)cc1 [Example 4, (S)-2-(tert-Butoxy)-2-(4-(4,4-dimethylpiperidin-1-yl)-2,6-dimethyl-5-(4-(2-(piperidin-1-yl)ethoxy)phenyl)pyridin-3-yl)acetic Acid] | < 0.1 | – | – |
| Cc1nc(C)c([C@H](OC(C)(C)C)C(=O)O)c(N2CCC(C)(C)CC2)c1-c1ccc(OCCN2CCOCC2)cc1 [Example 5, (S)-2-(tert-Butoxy)-2-(4-(4,4-dimethylpiperidin-1-yl)-2,6-dimethyl-5-(4-(2-morpholinoethoxy)phenyl)pyridin-3-yl)acetic Acid] | < 0.1 | 0.021 | – |
| COc1cccc(C2CCN(CCOc3ccc(-c4c(C)nc(C)c([C@H](OC(C)(C)C)C(=O)O)c4N4CCC(C)(C)CC4)cc3)CC2)c1 [Example 6, (S)-2-(tert-Butoxy)-2-(4-(4,4-dimethylpiperidin-1-yl)-5-(4-(2-(4-(3-methoxyphenyl)piperidin-1-yl)ethoxy)phenyl)-2,6-dimethylpyridin-3-yl)acetic Acid] | < 0.1 | – | – |
| Cc1nc(C)c([C@H](OC(C)(C)C)C(=O)O)c(N2CCC(C)(C)CC2)c1-c1ccc(OCCN2CCC(C)CC2)cc1 [Example 7, (S)-2-(tert-Butoxy)-2-(4-(4,4-dimethylpiperidin-1-yl)-2,6-dimethyl-5-(4-(2-(4-methylpiperidin-1-yl)ethoxy)phenyl)pyridin-3-yl)acetic Acid] | < 0.1 | – | – |
| Cc1nc(C)c([C@H](OC(C)(C)C)C(=O)O)c(N2CCC(C)(C)CC2)c1-c1ccc(OCC2CCC(C)CC2)cc1 (stereo partly drawn) [Example 8, (S)-2-(tert-Butoxy)-2-(4-(4,4-dimethylpiperidin-1-yl)-2,6-dimethyl-5-(4-((4-methylcyclohexyl)methoxy)phenyl)pyridin-3-yl)acetic Acid] | < 0.1 | – | – |
| Cc1nc(C)c([C@H](OC(C)(C)C)C(=O)O)c(N2CCC(C)(C)CC2)c1-c1ccc(OCC2CCC(C)CC2)cc1 (stereo partly drawn) [Example 9, (S)-2-(tert-Butoxy)-2-(4-(4,4-dimethylpiperidin-1-yl)-2,6-dimethyl-5-(4-((4-methylcyclohexyl)methoxy)phenyl)pyridin-3-yl)acetic Acid] | – | – | < 0.1 |
| Cc1nc(C)c([C@H](OC(C)(C)C)C(=O)O)c(N2CCC(C)(C)CC2)c1-c1ccc(OCCN2CCN(Cc3ccc(F)cc3)CC2)cc1 [Example 10, (S)-2-(tert-Butoxy)-2-(4-(4,4-dimethylpiperidin-1-yl)-5-(4-(2-(4-(4-fluorobenzyl)piperazin-1-yl)ethoxy)phenyl)-2,6-dimethylpyridin-3-yl)acetic Acid] | < 0.1 | – | – |
| Cc1nc(C)c([C@H](OC(C)(C)C)C(=O)O)c(N2CCC(C)(C)CC2)c1-c1ccc(OCC2(c3ccc(F)cc3)CC2)cc1 [Example 11] | < 0.1 | 0.003 | – |
| Cc1nc(C)c([C@H](OC(C)(C)C)C(=O)O)c(N2CCC(C)(C)CC2)c1-c1ccc(OC2Cc3ccccc3C2)cc1 [Example 12, (S)-2-(tert-Butoxy)-2-(5-(4-((2,3-dihydro-1H-inden-2-yl)oxy)phenyl)-4-(4,4-dimethylpiperidin-1-yl)-2,6-dimethylpyridin-3-yl)acetic Acid] | < 0.1 | – | – |
| Cc1nc(C)c([C@H](OC(C)(C)C)C(=O)O)c(N2CCC(C)(C)CC2)c1-c1ccc(OCCN2CCSCC2)cc1 [Example 13, (S)-2-(tert-Butoxy)-2-(4-(4,4-dimethylpiperidin-1-yl)-2,6-dimethyl-5-(4-(2-thiomorpholinoethoxy)phenyl)pyridin-3-yl)acetic Acid] | < 0.1 | 0.003 | – |
| Cc1nc(C)c([C@H](OC(C)(C)C)C(=O)O)c(N2CCC(C)(C)CC2)c1-c1ccc(OCCN2CCS(=O)(=O)CC2)cc1 [Example 14, (S)-2-(tert-Butoxy)-2-(4-(4,4-dimethylpiperidin-1-yl)-5-(4-(2-(1,1-dioxidothiomorpholino)ethoxy)phenyl)-2,6-dimethylpyridin-3-yl)acetic Acid] | < 0.1 | – | – |
| Cc1nc(C)c([C@H](OC(C)(C)C)C(=O)O)c(N2CCC(C)(C)CC2)c1-c1ccc(OC2CC(c3ccc(F)cc3)C2)cc1 (stereo partly drawn) [Example 15, (S)-2-(tert-Butoxy)-2-(4-(4,4-dimethylpiperidin-1-yl)-5-(4-(3-(4-fluorophenyl)cyclobutoxy)phenyl)-2,6-dimethylpyridin-3-yl)acetic Acid] | < 0.1 | – | – |
| Cc1nc(C)c([C@H](OC(C)(C)C)C(=O)O)c(N2CCC(C)(C)CC2)c1-c1ccc(OC2CCC(c3ccc(F)cc3)CC2)cc1 (stereo partly drawn) [Example 16, (S)-2-(tert-Butoxy)-2-(4-(4,4-dimethylpiperidin-1-yl)-5-(4-((4-(4-fluorophenyl)cyclohexyl)oxy)phenyl)-2,6-dimethylpyridin-3-yl)acetic Acid] | < 0.1 | – | – |
| Cc1nc(C)c([C@H](OC(C)(C)C)C(=O)O)c(N2CCC(C)(C)CC2)c1-c1ccc(OC2CCCC2c2ccc(F)cc2)cc1 (stereo partly drawn) [Example 17, (2S)-2-(tert-Butoxy)-2-(4-(4,4-dimethylpiperidin-1-yl)-5-(4-((2-(4-fluorophenyl)cyclopentyl)oxy)phenyl)-2,6-dimethylpyridin-3-yl)acetic acid] | < 0.1 | 0.012 | – |
| Cc1nc(C)c([C@H](OC(C)(C)C)C(=O)O)c(N2CCC(C)(C)CC2)c1-c1ccc(OC2CCCC2c2ccc(F)cc2)cc1 (stereo partly drawn) [Example 18, (2S)-2-(tert-Butoxy)-2-(4-(4,4-dimethylpiperidin-1-yl)-5-(4-((2-(4-fluorophenyl)cyclopentyl)oxy)phenyl)-2,6-dimethylpyridin-3-yl)acetic acid] | – | – | < 0.1 |
| Cc1nc(C)c([C@H](OC(C)(C)C)C(=O)O)c(N2CCC(C)(C)CC2)c1-c1ccc(OC2COCC2c2ccc(F)cc2)cc1 (stereo partly drawn) [Example 19, (2S)-2-(tert-Butoxy)-2-(4-(4,4-dimethylpiperidin-1-yl)-5-(4-((4-(4-fluorophenyl)tetrahydrofuran-3-yl)oxy)phenyl)-2,6-dimethylpyridin-3-yl)acetic acid] | < 0.1 | – | – |
| Cc1nc(C)c([C@H](OC(C)(C)C)C(=O)O)c(N2CCC(C)(C)CC2)c1-c1ccc(OC2COCC2c2ccc(F)cc2)cc1 (stereo partly drawn) [Example 20, (2S)-2-(tert-Butoxy)-2-(4-(4,4-dimethylpiperidin-1-yl)-5-(4-((4-(4-fluorophenyl)tetrahydrofuran-3-yl)oxy)phenyl)-2,6-dimethylpyridin-3-yl)acetic acid] | – | – | < 0.1 |
